# Marks after values point to notes of the source that are not given here.
# Experiments:
# [1] = tested on: rats with common carotid artery occlusion-induced vascular dementia; test: Step-down test, common carotid artery occlusion-induced vascular dementia rats; assay type: in vivo, rat; conditions: for Day 1, Error number / Day 2, Error latency / Day 2, Error number: step-down method, x ± s, succinate
# Excerpt: A rat blood vessel dementia model was made according to the references [ZHAO Xian-lin, FANG Xiu-bin, LI Dong-pei. Establishment of Vascular Dementia Model in Rats, J Chin Med Univ, 2002, 31 (3): 166-168; WANG Yong-yan, Zhang Bo-li, Editor-in-chief. Modern Chinese Medicine Clinic and Research on Vascular Dementia, People's Medical Publishing House, October 2003, First Version 214]: Chloral hydrate 0.4 g/kg was intraperitoneally injected for anesthetizing rats, and bilateral common carotid arteries were isolated and ligated. The animals were fed for 16 weeks, divided into groups on the last 7 days, and administered. The normal control group and the model group were administrated through the intragastric route with distilled water by 0.5 ml/100 g, the positive control group was administrated through the intragastric route with donepezil hydrochloride by 1.75 mg/kg (equivalent to 3.85 times the clinical daily dosage of 5 mg/70 kg), the low, medium and high-dose groups of Crystal Form A of octahydroaminoacridine succinate were administrated through the intragastric route with Crystal Form A of octahydroaminoacridine succinate by 0.7, 1.4 and 2.8 mg/kg (equivalent to 0.96, 1.92 and 3.85 times the clinical daily dosage of 8 mg/70 kg). The water maze test and the step-down test were carried out after continuous administration for 7 days, and the administration was continued during the test period. The water maze test was continuously performed for 7 days, in the first 6 days, in four different water entry points of quadrants 1, 2, 3 and 4, the time, the swimming path length, the orientation angle and the average speed of the rat reaching the platform were measured, meanwhile, the strategy for reaching the platform adopted by rats was observed, on the 7th day, the platform was removed, the number of rats crossing the platform in 2 minutes, the residence time in the platform area, the residence time in the platform quadrants, the percentage of the swimming path length in the platform area quadrants to the total swimming path length, the average speed and the orientation angle were measured. After the water maze test was finished, the step-down test was performed, and the number of electric shocks (or called as the error number) received by each rat within 5 minutes was recorded as the learning performance. The test was performed again after 24 hours, namely, the memory retention test, and the latent period for stepping-down the platform for the first time and the error number in five minutes were recorded. After the step-down test was finished, the brain was taken quickly for pathological examination, and the pathological changes of the hippocampus and the cortex were observed.
# [2] = tested on: rats with beta-amyloid induced senile dementia; test: Water maze test, beta-amyloid induced senile dementia rats; assay type: in vivo, rat; conditions: for adopted strategy for reaching the platform (the peripheral type and the random type %) / orientation angle for reaching the platform / speed for reaching the platform / swimming path length for reaching the platform / time for reaching the platform: succinate; for orientation angle for reaching the platform / speed for reaching the platform / swimming path length for reaching the platform / time for reaching the platform: x ± s
# [3] = 0.7 mg/kg intragastric, 0.7 mg/kg
# [4] = 1.4 mg/kg intragastric, 1.4 mg/kg
# [5] = 2.8 mg/kg intragastric, 2.8 mg/kg
# [6] = 0.7, 1.4 and 2.8 mg/kg, Day 7, P<0.05 or P<0.01
# [7] = Day 1, 0.7 mg/kg intragastric, 0.7 mg/kg
# [8] = Day 1, 1.4 mg/kg intragastric, 1.4 mg/kg
# [9] = Day 1, 2.8 mg/kg intragastric, 2.8 mg/kg
# [10] = Day 2, 0.7 mg/kg intragastric, 0.7 mg/kg
# [11] = Day 2, 1.4 mg/kg intragastric, 1.4 mg/kg
# [12] = Day 2, 2.8 mg/kg intragastric, 2.8 mg/kg
# [13] = Day 3, 0.7 mg/kg intragastric, 0.7 mg/kg
# [14] = Day 3, 1.4 mg/kg intragastric, 1.4 mg/kg
# [15] = Day 3, 2.8 mg/kg intragastric, 2.8 mg/kg
# [16] = Day 4, 0.7 mg/kg intragastric, 0.7 mg/kg
# [17] = Day 4, 1.4 mg/kg intragastric, 1.4 mg/kg
# [18] = Day 4, 2.8 mg/kg intragastric, 2.8 mg/kg
# [19] = Day 5, 0.7 mg/kg intragastric, 0.7 mg/kg
# [20] = Day 5, 1.4 mg/kg intragastric, 1.4 mg/kg
# [21] = Day 5, 2.8 mg/kg intragastric, 2.8 mg/kg
# [22] = Day 6, 0.7 mg/kg intragastric, 0.7 mg/kg
# [23] = Day 6, 1.4 mg/kg intragastric, 1.4 mg/kg
# [24] = Day 6, 2.8 mg/kg intragastric, 2.8 mg/kg
compound,measurement,setting,value
"Nc1c2c(nc3c1CCCC3)CCCC2.O=C(O)CCC(=O)O [Crystal Form A, 9-amino-1,2,3,4,5,6,7,8-octahydroacridine succinate]",step-down error number vs model group,"[1]; 1.4 mg/kg, Day 2, P<0.05",obviously reduced
same,step-down error number vs model group,"[1]; 2.8 mg/kg, Day 1 and Day 2, P<0.05",obviously reduced
same,error latency vs model group,"[1]; 2.8 mg/kg, Day 2, P<0.05",obviously prolonged
same,"Day 1, Error number",[1]; [3],7.50 ± 4.06
same,"Day 2, Error latency",[1]; [3],215.30 ± 83.07 s
same,"Day 2, Error number",[1]; [3],1.70 ± 1.49
same,"Day 1, Error number",[1]; [4],6.60 ± 2.88
same,"Day 2, Error latency",[1]; [4],223.70 ± 75.02 s
same,"Day 2, Error number",[1]; [4],1.30 ± 1.25
same,"Day 1, Error number",[1]; [5],5.80 ± 2.65
same,"Day 2, Error latency",[1]; [5],250.10 ± 72.32 s
same,"Day 2, Error number",[1]; [5],0.90 ± 1.28
same,latent period for reaching the platform vs model group,"[2]; 0.7 mg/kg, Day 1, P<0.05",obviously shortened
same,latent period for reaching the platform vs model group,"[2]; 1.4 mg/kg, Day 1 to Day 6, P<0.05 or P<0.01",obviously shortened
same,swimming path length for reaching the platform vs model group,"[2]; 1.4 mg/kg, Day 3 and Day 5, P<0.05",obviously shortened
same,percentage of the swimming path length in the platform area quadrants to the total swimming path length vs model group,"[2]; 1.4 mg/kg, Day 7, P<0.05",obviously increased
same,residence time in the platform quadrants vs model group,"[2]; 1.4 mg/kg, Day 7, P<0.05",obviously increased
same,orientation angle vs model group,"[2]; 2.8 mg/kg, Day 2, Day 3, Day 5 and Day 6, P<0.05 or P<0.01",obviously decreased
same,latent period for reaching the platform vs model group,"[2]; 2.8 mg/kg, Day 2 to Day 6, P<0.05 or P<0.01",obviously shortened
same,swimming path length for reaching the platform vs model group,"[2]; 2.8 mg/kg, Day 5 and Day 6, P<0.05",obviously shortened
same,swimming speed vs model group,"[2]; 0.7, 1.4 and 2.8 mg/kg, Day 1, P<0.05",obviously increased
same,average speed and orientation angle vs model group,"[2]; 0.7, 1.4 and 2.8 mg/kg, Day 7",not obviously changed
same,number of rats crossing the platform within 2 minutes vs model group,[2]; [6],obviously increased
same,residence time on the platform vs model group,[2]; [6],obviously increased
same,conversion from the peripheral type and the random type to the tendency type and the linear type in the strategy for looking for the platform,"[2]; 0.7, 1.4 and 2.8 mg/kg, P<0.05 or P<0.01",obviously increased
same,orientation angle vs model group,"[2]; 0.7 and 1.4 mg/kg, Day 2, P<0.05",obviously decreased
same,adopted strategy for reaching the platform (the peripheral type and the random type %),[2]; [7],87.50%
same,orientation angle for reaching the platform,[2]; [7],62.79 ± 19.80 °
same,speed for reaching the platform,[2]; [7],22.41 ± 7.84 cm/s
same,swimming path length for reaching the platform,[2]; [7],1169.52 ± 985.73 cm
same,time for reaching the platform,[2]; [7],51.79 ± 26.01 s
same,adopted strategy for reaching the platform (the peripheral type and the random type %),[2]; [8],92.50%
same,orientation angle for reaching the platform,[2]; [8],77.42 ± 21.94 °
same,speed for reaching the platform,[2]; [8],21.16 ± 5.82 cm/s
same,swimming path length for reaching the platform,[2]; [8],1022.59 ± 558.57 cm
same,time for reaching the platform,[2]; [8],47.00 ± 19.96 s
same,adopted strategy for reaching the platform (the peripheral type and the random type %),[2]; [9],95.50%
same,orientation angle for reaching the platform,[2]; [9],61.45 ± 13.71 °
same,speed for reaching the platform,[2]; [9],19.76 ± 2.88 cm/s
same,swimming path length for reaching the platform,[2]; [9],1215.28 ± 534.19 cm
same,time for reaching the platform,[2]; [9],65.22 ± 26.94 s
same,adopted strategy for reaching the platform (the peripheral type and the random type %),[2]; [10],68.75%
same,orientation angle for reaching the platform,[2]; [10],48.33 ± 25.33 °
same,speed for reaching the platform,[2]; [10],28.34 ± 10.42 cm/s
same,swimming path length for reaching the platform,[2]; [10],762.15 ± 878.65 cm
same,time for reaching the platform,[2]; [10],29.20 ± 28.52 s
same,adopted strategy for reaching the platform (the peripheral type and the random type %),[2]; [11],77.50%
same,orientation angle for reaching the platform,[2]; [11],53.95 ± 19.36 °
same,speed for reaching the platform,[2]; [11],24.65 ± 5.95 cm/s
same,swimming path length for reaching the platform,[2]; [11],657.63 ± 419.44 cm
same,time for reaching the platform,[2]; [11],29.60 ± 18.83 s
same,adopted strategy for reaching the platform (the peripheral type and the random type %),[2]; [12],67.50* %
same,orientation angle for reaching the platform,[2]; [12],42.58 ± 17.57 °
same,speed for reaching the platform,[2]; [12],23.62 ± 5.04 cm/s
same,swimming path length for reaching the platform,[2]; [12],717.16 ± 484.50 cm
same,time for reaching the platform,[2]; [12],27.92 ± 18.96 s
same,adopted strategy for reaching the platform (the peripheral type and the random type %),[2]; [13],87.50%
same,orientation angle for reaching the platform,[2]; [13],59.46 ± 34.15 °
same,speed for reaching the platform,[2]; [13],25.56 ± 10.30 cm/s
same,swimming path length for reaching the platform,[2]; [13],922.69 ± 927.53 cm
same,time for reaching the platform,[2]; [13],39.88 ± 39.00 s
same,adopted strategy for reaching the platform (the peripheral type and the random type %),[2]; [14],70.50%
same,orientation angle for reaching the platform,[2]; [14],49.79 ± 16.12 °
same,speed for reaching the platform,[2]; [14],23.53 ± 5.74 cm/s
same,swimming path length for reaching the platform,[2]; [14],359.75 ± 164.16 cm
same,time for reaching the platform,[2]; [14],15.74 ± 5.83 s
same,adopted strategy for reaching the platform (the peripheral type and the random type %),[2]; [15],70.00%
same,orientation angle for reaching the platform,[2]; [15],41.19 ± 18.30 °
same,speed for reaching the platform,[2]; [15],22.47 ± 2.59 cm/s
same,swimming path length for reaching the platform,[2]; [15],426.44 ± 213.56 cm
same,time for reaching the platform,[2]; [15],20.24 ± 10.26 s
same,adopted strategy for reaching the platform (the peripheral type and the random type %),[2]; [16],64.50* %
same,orientation angle for reaching the platform,[2]; [16],47.21 ± 18.21 °
same,speed for reaching the platform,[2]; [16],24.92 ± 2.52 cm/s
same,swimming path length for reaching the platform,[2]; [16],806.38 ± 1014.62 cm
same,time for reaching the platform,[2]; [16],32.05 ± 39.88 s
same,adopted strategy for reaching the platform (the peripheral type and the random type %),[2]; [17],77.50%
same,orientation angle for reaching the platform,[2]; [17],53.54 ± 25.57 °
same,speed for reaching the platform,[2]; [17],25.56 ± 4.54 cm/s
same,swimming path length for reaching the platform,[2]; [17],493.65 ± 256.60 cm
same,time for reaching the platform,[2]; [17],20.82 ± 11.32 s
same,adopted strategy for reaching the platform (the peripheral type and the random type %),[2]; [18],67.50* %
same,orientation angle for reaching the platform,[2]; [18],47.22 ± 23.29 °
same,speed for reaching the platform,[2]; [18],27.31 ± 4.62 cm/s
same,swimming path length for reaching the platform,[2]; [18],600.43 ± 563.07 cm
same,time for reaching the platform,[2]; [18],22.73 ± 21.88 s
same,adopted strategy for reaching the platform (the peripheral type and the random type %),[2]; [19],75.50* %
same,orientation angle for reaching the platform,[2]; [19],54.72 ± 24.68 °
same,speed for reaching the platform,[2]; [19],27.17 ± 13.51 cm/s
same,swimming path length for reaching the platform,[2]; [19],571.38 ± 716.43 cm
same,time for reaching the platform,[2]; [19],25.95 ± 33.84 s
same,adopted strategy for reaching the platform (the peripheral type and the random type %),[2]; [20],57.50* %
same,orientation angle for reaching the platform,[2]; [20],53.41 ± 23.18 °
same,speed for reaching the platform,[2]; [20],20.14 ± 4.25 cm/s
same,swimming path length for reaching the platform,[2]; [20],278.26 ± 125.79 cm
same,time for reaching the platform,[2]; [20],14.95 ± 9.19 s
same,adopted strategy for reaching the platform (the peripheral type and the random type %),[2]; [21],68.00** %
same,orientation angle for reaching the platform,[2]; [21],43.23 ± 15.80 °
same,speed for reaching the platform,[2]; [21],23.96 ± 4.94 cm/s
same,swimming path length for reaching the platform,[2]; [21],312.55 ± 230.50 cm
same,time for reaching the platform,[2]; [21],14.17 ± 11.56 s
same,adopted strategy for reaching the platform (the peripheral type and the random type %),[2]; [22],65.50%
same,orientation angle for reaching the platform,[2]; [22],46.47 ± 18.69 °
same,speed for reaching the platform,[2]; [22],23.50 ± 9.00 cm/s
same,swimming path length for reaching the platform,[2]; [22],461.68 ± 417.67 cm
same,time for reaching the platform,[2]; [22],21.76 ± 23.11 s
same,adopted strategy for reaching the platform (the peripheral type and the random type %),[2]; [23],68.50%
same,orientation angle for reaching the platform,[2]; [23],46.29 ± 22.64 °
same,speed for reaching the platform,[2]; [23],20.87 ± 4.35 cm/s
same,swimming path length for reaching the platform,[2]; [23],402.97 ± 434.93 cm
same,time for reaching the platform,[2]; [23],20.62 ± 22.63 s
same,adopted strategy for reaching the platform (the peripheral type and the random type %),[2]; [24],52.50** %
same,orientation angle for reaching the platform,[2]; [24],40.91 ± 15.25 °
same,speed for reaching the platform,[2]; [24],24.73 ± 4.83 cm/s
same,swimming path length for reaching the platform,[2]; [24],252.87 ± 161.30 cm
same,time for reaching the platform,[2]; [24],10.70 ± 6.74 s
